Assay results from the supplement of paper PMC10307832.

Columns and labels:
Assay in all cases: relative viability (nuclei count vs DMSO), 5 days (fraction); higher = more cells survive
Afatinib + Navitoclax = compound: CN(C)C/C=C/C(=O)Nc1cc2c(Nc3ccc(F)c(Cl)c3)ncnc2cc1O[C@H]1CCOC1 [Afatinib] + CC1(C)CCC(c2ccc(Cl)cc2)=C(CN2CCN(c3ccc(C(=O)NS(=O)(=O)c4ccc(N[C@H](CCN5CCOCC5)CSc5ccccc5)c(S(=O)(=O)C(F)(F)F)c4)cc3)CC2)C1 [Navitoclax] (partner 0.5 µM)
In short: (§1)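 Each reported value is a median over duplicate plates. It expresses relative viability: treated-well nuclei count divided by vehicle-well nuclei count. Lung cancer cell lines in 1536-well plates were dosed by pin tool a day after seeding, alone with one drug or with a fixed anchor-drug dose plus five library-drug doses (not always all listed) in √10 steps, and nuclei were counted after 5 days.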

Afatinib + Luminespib = compound: CN(C)C/C=C/C(=O)Nc1cc2c(Nc3ccc(F)c(Cl)c3)ncnc2cc1O[C@H]1CCOC1 [Afatinib] + CCNC(=O)c1noc(-c2cc(C(C)C)c(O)cc2O)c1-c1ccc(CN2CCOCC2)cc1 [Luminespib] (partner 0.01 µM)
In short: as §1

Afatinib + Foretinib = compound: CN(C)C/C=C/C(=O)Nc1cc2c(Nc3ccc(F)c(Cl)c3)ncnc2cc1O[C@H]1CCOC1 [Afatinib] + COc1cc2c(Oc3ccc(NC(=O)C4(C(=O)Nc5ccc(F)cc5)CC4)cc3F)ccnc2cc1OCCCN1CCOCC1 [Foretinib] (partner 0.25 µM)
In short: as §1

Afatinib + Linsitinib = compound: CN(C)C/C=C/C(=O)Nc1cc2c(Nc3ccc(F)c(Cl)c3)ncnc2cc1O[C@H]1CCOC1 [Afatinib] + C[C@]1(O)C[C@@H](c2nc(-c3ccc4ccc(-c5ccccc5)nc4c3)c3c(N)nccn32)C1 [Linsitinib] (partner 1 µM)
In short: as §1

Cell Line	relative viability (Afatinib + Navitoclax; first compound 0.005 µM)	relative viability (Afatinib + Navitoclax; first compound 0.01581 µM)	relative viability (Afatinib + Navitoclax; first compound 0.05 µM)	relative viability (Afatinib + Navitoclax; first compound 0.1581 µM)	relative viability (Afatinib + Navitoclax; first compound 0.5 µM)	relative viability (Afatinib + Luminespib; first compound 0.005 µM)	relative viability (Afatinib + Luminespib; first compound 0.01581 µM)	relative viability (Afatinib + Luminespib; first compound 0.05 µM)	relative viability (Afatinib + Luminespib; first compound 0.1581 µM)	relative viability (Afatinib + Luminespib; first compound 0.5 µM)	relative viability (Afatinib + Foretinib; first compound 0.005 µM)	relative viability (Afatinib + Foretinib; first compound 0.01581 µM)	relative viability (Afatinib + Foretinib; first compound 0.05 µM)	relative viability (Afatinib + Foretinib; first compound 0.1581 µM)	relative viability (Afatinib + Foretinib; first compound 0.5 µM)	relative viability (Afatinib + Linsitinib; first compound 0.005 µM)	relative viability (Afatinib + Linsitinib; first compound 0.01581 µM)	relative viability (Afatinib + Linsitinib; first compound 0.05 µM)	relative viability (Afatinib + Linsitinib; first compound 0.1581 µM)	relative viability (Afatinib + Linsitinib; first compound 0.5 µM)
NCI-H596	1.01	0.94	1.03	0.815	0.934	1.01	1	0.894	0.778	0.984	0.811	0.952	0.675	0.643	0.873	1.06	1.16	1.1	1.02	0.888
NCI-H647	1.09	0.951	1.16	1.13	1.39	0.169	0.26	0.12	0.183	0.158	1.21	1.1	1.21	1.11	1.14	1.1	1.22	1.24	1.27	1.18
NCI-H727	0.371	0.349	0.407	0.345	0.353	0.404	–	0.416	0.282	0.345	0.82	0.588	0.762	0.709	0.752	0.282	0.307	0.284	0.267	0.28
NCI-H838	1.12	1.14	1.27	1.2	1.16	0.346	0.291	0.272	0.217	0.248	1.07	1.01	1.11	1.02	1.26	1.04	0.949	1.07	0.952	1.06
NCI-H1355	0.807	1.02	0.823	0.764	0.792	0.703	0.685	0.642	0.647	0.582	0.947	0.636	0.824	0.773	0.751	0.744	0.828	0.728	0.586	0.662
NCI-H1395	1.31	0.999	1.12	1.17	1.2	0.733	0.781	0.664	0.7	0.665	0.939	1.05	0.973	0.914	0.937	1.43	1.13	1.22	1.19	1.13
NCI-H1437	1.1	1.1	1.17	1.1	1.1	1.2	1.14	1.23	1.07	1.12	1.26	1.27	1.24	1.31	1.33	1.18	1.1	0.941	0.98	0.967
NCI-H1651	1.18	0.989	1.08	0.949	0.941	0.923	0.817	1.03	0.835	0.726	0.825	0.636	0.822	0.748	0.746	1.12	0.983	0.847	0.906	0.815
